Test results: ChEMBL document CHEMBL4311934, “Exploration of [2 + 2 + 2] cyclotrimerisation methodology to prepare tetrahydroisoquinoline-based compounds with potential aldo-keto reductase 1C3 target affinity” (Medchemcomm, 2019)

How the values were obtained:
[1] = molecular target: T1, Aldo-keto reductase family 1 member C2 (Homo sapiens, UniProt P52895); experiment: Inhibition of N-terminal GST-tagged recombinant human AKR1C2 expressed in Escherichia coli BL21 (DE) Codon Plus RP cells assessed as reduction in NADPH production using S-tetralol as substrate in presence of NADP+ by fluorimetry assay
T1 sequence (P52895 whole entry): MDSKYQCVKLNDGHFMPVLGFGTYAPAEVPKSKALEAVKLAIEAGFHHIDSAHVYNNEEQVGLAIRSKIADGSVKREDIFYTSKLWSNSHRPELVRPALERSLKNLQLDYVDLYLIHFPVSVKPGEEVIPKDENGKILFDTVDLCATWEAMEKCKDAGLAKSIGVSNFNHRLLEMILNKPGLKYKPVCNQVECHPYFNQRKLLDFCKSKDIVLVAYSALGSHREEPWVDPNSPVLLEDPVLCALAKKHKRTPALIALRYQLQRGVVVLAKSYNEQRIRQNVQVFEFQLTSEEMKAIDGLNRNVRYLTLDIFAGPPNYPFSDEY

[2] = molecular target: T2, Aldo-keto reductase family 1 member C3 (Homo sapiens, UniProt P42330); experiment: Inhibition of N-terminal GST-tagged recombinant human AKR1C3 expressed in Escherichia coli BL21 (DE) Codon Plus RP cells assessed as reduction in NADPH production using S-tetralol as substrate in presence of NADP+ by fluorimetry assay
T2 sequence (P42330 whole entry): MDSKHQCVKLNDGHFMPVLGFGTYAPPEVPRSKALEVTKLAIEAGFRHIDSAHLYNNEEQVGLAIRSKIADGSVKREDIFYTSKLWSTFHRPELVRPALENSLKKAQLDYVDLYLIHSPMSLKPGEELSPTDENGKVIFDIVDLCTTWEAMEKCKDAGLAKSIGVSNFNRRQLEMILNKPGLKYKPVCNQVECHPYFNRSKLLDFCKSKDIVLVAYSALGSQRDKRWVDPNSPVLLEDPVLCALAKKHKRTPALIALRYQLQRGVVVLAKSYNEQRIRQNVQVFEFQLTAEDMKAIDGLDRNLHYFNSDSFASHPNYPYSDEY

[3] = species: Homo sapiens; experiment: Selectivity index, ratio of IC50 for N-terminal GST-tagged recombinant human AKR1C2 expressed in Escherichia coli BL21 (DE) Codon Plus RP cells to IC50 for N-terminal GST-tagged recombinant human AKR1C3 expressed in Escherichia coli BL21 (DE) Codon Plus RP cells
[4] = molecular target: T3, Aldo-keto reductase family 1 member C2 (Homo sapiens) (UniProt P52895); experiment: Inhibition of N-terminal GST-tagged recombinant human AKR1C2 expressed in Escherichia coli BL21 (DE) Codon Plus RP cells assessed as reduction in NADPH production 50 uM using S-tetralol as substrate in presence of NADP+ by fluorimetry assay relative to control
T3 sequence (whole entry): T1 sequence (P52895 whole entry)

[5] = molecular target: T4, Aldo-keto reductase family 1 member C3 (Homo sapiens) (UniProt P42330); experiment: Inhibition of N-terminal GST-tagged recombinant human AKR1C3 expressed in Escherichia coli BL21 (DE) Codon Plus RP cells assessed as reduction in NADPH production at 50 uM using S-tetralol as substrate in presence of NADP+ by fluorimetry assay relative to control
T4 sequence (whole entry): T2 sequence (P42330 whole entry)

Compound	IC50 [1]	IC50 [2]	Ratio IC50 [3]	inhibition [4]	inhibition [5]
COc1ccc2cc3[n+](cc2c1OC)CCc1cc2c(cc1-3)OCO2 [BERBERINE]	6.71 µM	5.9 µM	–	–	–
CCOC(=O)c1cc2c(cc1C(=O)OCC)CN1C(=O)CCC1C2 (stereo unspecified)	96.2 µM	11.7 µM	8	–	–
O=C1CCC2Cc3cc(CO)c(CO)cc3CN12 (stereo unspecified)	> 50 µM	> 50 µM	–	26.9%	25%
O=C(O)c1cc2c(cc1C(=O)O)CN1C(=O)CCC1C2 (stereo unspecified)	27.3 µM	23.1 µM	–	–	–
